Like-named read-outs stand apart in the source and are kept apart here.
Assays:
CB1 [1] = target: T1, CB1 (Mus musculus, UniProt P47746); assay: biochemical
[2] = test system: CB1 -/- mouse brain membranes; format: biochemical
mice = settings: mouse
mouse brain MAGL = target: T2, mouse brain MAGL (Mus musculus, UniProt O35678); assay: MAGL activity in mouse brain membranes; format: biochemical; settings: read-out: MAGL IC50
T2 sequence (O35678 1-303): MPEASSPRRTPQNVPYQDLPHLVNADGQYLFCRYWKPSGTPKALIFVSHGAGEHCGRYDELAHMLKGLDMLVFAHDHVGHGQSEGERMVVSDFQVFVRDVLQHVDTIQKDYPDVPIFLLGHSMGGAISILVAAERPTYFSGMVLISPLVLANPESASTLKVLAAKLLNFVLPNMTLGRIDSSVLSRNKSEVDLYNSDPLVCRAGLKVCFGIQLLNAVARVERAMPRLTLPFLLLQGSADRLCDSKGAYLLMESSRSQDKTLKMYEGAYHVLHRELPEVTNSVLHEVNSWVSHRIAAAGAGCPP

[3] = target: eCB1 (CB1 overexpressed in HEK293 cells) (Mus musculus, UniProt P47746); format: binding
CB1 [4] = target: T1, CB1; assay: biochemical; format: binding

T1 sequence (P47746 whole entry): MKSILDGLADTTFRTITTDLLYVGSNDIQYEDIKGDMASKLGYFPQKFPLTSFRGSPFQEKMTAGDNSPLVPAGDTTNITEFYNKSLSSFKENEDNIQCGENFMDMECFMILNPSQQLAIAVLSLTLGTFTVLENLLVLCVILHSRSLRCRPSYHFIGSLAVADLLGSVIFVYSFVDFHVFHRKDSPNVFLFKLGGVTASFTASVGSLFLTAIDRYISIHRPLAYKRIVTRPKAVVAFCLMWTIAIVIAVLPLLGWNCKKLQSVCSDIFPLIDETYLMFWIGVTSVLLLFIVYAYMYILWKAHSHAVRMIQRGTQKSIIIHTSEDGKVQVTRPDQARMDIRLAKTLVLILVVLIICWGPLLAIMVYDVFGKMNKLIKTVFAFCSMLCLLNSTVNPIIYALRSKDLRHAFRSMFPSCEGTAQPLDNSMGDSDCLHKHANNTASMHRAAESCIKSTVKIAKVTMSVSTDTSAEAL
Sequence of eCB1 (CB1 overexpressed in HEK293 cells) (P47746 whole entry): as above

SMILES: CCCCC/C=C\C/C=C\C/C=C\C/C=C\CCCC(=O)OC(CO)CO [2-AG, 2-arachidonoylglycerol]
- EC50 (CB1 [1]; EC50 for stimulation of GTPγS binding): 1 µM
- EC50 (CB1 [1]; EC50 of 2-AG for stimulation of GTPγS binding after preincubation with OP 1): 0.3 µM
- Stimulation of GTPγS binding in CB1 -/- membranes [2]: significant

SMILES: CCCCCCCCCCCCP(=O)(OCC)Oc1nc(Cl)c(Cl)cc1Cl (centres unmarked) [OP 3]
- In vivo effectiveness in modulating behavior and brain 2-AG and AA levels (mice): not effective in vivo

SMILES: CCCCCCCCCCCCP(=O)(OCC)Oc1ccc(C#N)cc1 (centres unmarked) [OP 4]
- In vivo effectiveness in modulating behavior and brain 2-AG and AA levels (mice): very effective in vivo in all respects
- IC50 (mouse brain MAGL; substrate 2-AG): 0.07 µM
- IC50 (mouse brain MAGL; substrate [14C]1-oleoylglycerol): 0.07 µM

SMILES: CCOP(=O)(OCC)Oc1nc(Cl)c(Cl)cc1Cl [OP 7, chlorpyrifos oxon]
- Sensitivity of eCB1 [3H]CP55940 binding [3]: not sensitive

SMILES: CCCCCCCCCCCCS(=O)(=O)F [OS 9]
- In vivo effectiveness in modulating behavior and brain 2-AG and AA levels (mice): same in vivo effects as OP 1 and OP 4

SMILES: CCCCCCCCS(=O)(=O)F [OS 10]
- In vivo effectiveness in modulating behavior and brain 2-AG and AA levels (mice): same in vivo effects as OP 1 and OP 4

SMILES: CCCCCCC(C)(C)c1ccc([C@@H]2C[C@H](O)CC[C@H]2CCCO)c(O)c1 [[^3H]CP55940]
- Kd (CB1 [4]): 0.00086 µM

Reference: paper PMC2593629 (Bioorganic & medicinal chemistry letters, 2008)
